# Results taken from US20260007680A1, “Compounds and Their Use as PDE4 Activators” (Mironid Limited, priority 2022, published 2026).
# Tested on: m-IMCD3 cells
# Experiment: Inhibition of PGE2-stimulated in vitro cyst formation in 3D culture of m-IMCD3 cells (Experiment 4)
# Format: cell-based, mouse
# Settings: 3D culture
# Experimental: HEK 293 and MDCK cells (Public Health England, Cell Culture Collections) were maintained in Dulbecco's Modified Eagle's Medium (DMEM) supplemented with 10% (v/v) fetal bovine serum (FBS) (Seralab), 2 mM L-glutamine and 100 U/ml penicillin streptomycin cocktail (ThermoFisher); termed complete media. Clonal HEK 293 cell lines were maintained in complete media supplemented with 0.6 mg/mL G418 (Enzo Life Sciences). Mouse inner medullary collecting duct (m-IMCD3) cells [American Type Culture Collection (ATCC)] were maintained in media consisting of DMEM/Hams F-12 50/50 Mix (DMEM F12; Corning) supplemented with penicillin streptomycin cocktail (100 U/ml) and FBS (10% v/v) (DMEM F12-10% FBS).
# The mouse Inner Medullary Collecting Duct cell line (m-IMCD3) spontaneously forms cystic spheroids in 3D culture with a Type 1 collagen/Matrigel extracellular matrix. This process can be stimulated with agents which raise intracellular cAMP and is used as an in vitro model for the formation of cystic structures in the kidneys of patients with ADPKD.
# Rat Collagen I (Fisher Scientific) is prepared on ice by neutralising with 1 M NaOH and diluting with a 2×volume of DMEM/F12+10% FBS. This is mixed 1:1.1 with ice cold Matrigel (Corning) for coating plates (coating mix), and 1:0.93 with Matrigel for cell plating (plating mix).
# The assay is conducted in the wells of a 96-well plate culture dish using a total volume of 130 μL of collagen/Matrigel/DMEM F12-10% FBS suspension in growth media for each matrix plug per individual well. Initially, 30 μL of collagen/Matrigel/DMEM F12-10% FBS (coating mix) is added into the well of a 96 well plate and the collagen is set to a gel by incubating at 37° C. for at least 15 minutes. A second layer of 100 μL collagen/Matrigel suspension (plating mix) containing m-IMCD3 cells (2.75×10^6 m-IMCD3 cells per 96-well plate) is layered over the coating mix and the collagen/Matrigel/cell mix again set to a gel by incubating at 37° C. Cell cultures are maintained at 37° C. in an atmosphere of 5% CO2, 95% air.
# Between 18 and 24 h after plating, test compound(s) as DMSO stock solutions [0.1% (v/v) final DMSO concentration] and PGE2 (100 nM final concentration) in DMEM F12-10% FBS are added in quadruplicate wells per condition. Media, together with the test compound and PGE2 are replenished after 2 or 3 days. After 6 days of culture z stack images of the wells are captured using the Nikon Eclipse Ti2-E microscope. Nikon General Analysis software is used to measure the following parameters in each well: the mean cyst area, the number of cysts, and the total cyst area.
# PDE4 long form activators inhibited in vitro cyst formation in m-IMCD3 cells. Data are shown in FIG. 2 and Table 4 as mean cyst area (%), compared to 100% for (DMSO+PGE2) and 0% for DMSO control.
row,SMILES,"inhibition of PGE2-stimulated cyst formation in m-IMCD3 cells (FIG. 2, text)"
1,"CCN1CCC(c2nc3ccc(C(=O)N[C@H]4CCOc5ccccc54)cn3n2)CC1 [Example 51, (S)—N-(chroman-4-yl)-2-(1-ethylpiperidin-4-yl)-[1,2,4]triazolo[1,5-a]pyridine-6-carboxamide]",concentration-dependent inhibition

# Same assay, conditions: Mus musculus, mIMCD3, 144 h, 10 μM test compound, mean cyst area compared to 100% for (DMSO + PGE2) and 0% for DMSO control, read-out: % Cyst area* after incubation with 10 μM test compound
row,SMILES,activity at 10 µM [%]
1,"CCN1CCN(c2nc3cc(C(=O)N[C@H]4CCOc5ccccc54)ccn3n2)CC1 [Example 60, (S)—N-(chroman-4-yl)-2-(4-ethylpiperazin-1-yl)-[1,2,4]triazolo[1,5-a]pyridine-7-carboxamide]",18
2,"O=C(N[C@H]1CCOc2ccccc21)c1ccc2oc(N3CCN(CCO)CC3)nc2c1 [Example 106, (S)—N-(chroman-4-yl)-2-(4-(2-hydroxyethyl)piperazin-1-yl)benzo[d]oxazole-5-carboxamide]",-3
3,"Cn1c(N2CCNCC2)nc2ccc(C(=O)N[C@H]3CCOc4ccccc43)cc21 [Example 31, (S)—N-(chroman-4-yl)-1-methyl-2-(piperazin-1-yl)-1H-benzo[d]imidazole-6-carboxamide]",3
4,"CN1CCN(c2nc3cc(C(=O)N[C@H]4CCc5ccccc54)ccn3n2)CC1 [Example 64, (S)—N-(2,3-dihydro-1H-inden-1-yl)-2-(4-methylpiperazin-1-yl)-[1,2,4]triazolo[1,5-a]pyridine-7-carboxamide]",1
5,"CCN1CCC(c2nc3ccc(C(=O)N[C@H]4CCOc5ccccc54)cn3n2)CC1 [Example 51, (S)—N-(chroman-4-yl)-2-(1-ethylpiperidin-4-yl)-[1,2,4]triazolo[1,5-a]pyridine-6-carboxamide]",6
6,"Cc1ncccc1-c1nc2cc(C(=O)N[C@H]3CCOc4ccccc43)ccc2[nH]1 [Example 3, (S)—N-(chroman-4-yl)-2-(2-methylpyridin-3-yl)-1H-benzo[d]imidazole-5-carboxamide]",20
7,"CN1CCN(c2cc3ncc(C(=O)NC4CCCC4)cn3n2)CC1 [Example 76, N-cyclopentyl-2-(4-methylpiperazin-1-yl)pyrazolo[1,5-a]pyrimidine-6-carboxamide]",9
8,"O=C(NC1CCC(F)(F)CC1)c1cc2sc(N3C4CCC3CNC4)nc2cn1 [Example 120, 2-(3,8-diazabicyclo[3.2.1]octan-8-yl)-N-(4,4-difluorocyclohexyl)thiazolo[4,5-c]pyridine-6-carboxamide]",29
9,"CN1CCN(c2cc3ncc(C(=O)N[C@H]4CCOc5ccccc54)cn3n2)CC1 [Example 69, (S)—N-(chroman-4-yl)-2-(4-methylpiperazin-1-yl)pyrazolo[1,5-a]pyrimidine-6-carboxamide]",7
10,"CCN1CCN(c2cc3ncc(C(=O)N[C@H]4CCOc5ccccc54)cn3n2)CC1 [Example 70, (S)—N-(chroman-4-yl)-2-(4-ethylpiperazin-1-y)pyrazolo[1,5-a]pyrimidine-6-carboxamide]",5
11,"O=C(NCc1ccc(F)cc1)c1cnc2cc(C3CCNCC3)nn2c1 [Example 89, N-(4-fluorobenzyl)-2-(piperidin-4-yl)pyrazolo[1,5-a]pyrimidine-6-carboxamide]",-3
12,"CN1CCN(c2cc3ncc(C(=O)NC4CCCCC4)cn3n2)CC1 [Example 77, N-cyclohexyl-2-(4-methylpiperazin-1-yl)pyrazolo[1,5-a]pyrimidine-6-carboxamide]",0
13,"O=C(NC1CCCC1)c1ccc2oc(N3CCNCC3)nc2c1 [Example 101, N-cyclopentyl-2-(piperazin-1-yl)benzo[d]oxazole-5-carboxamide]",21
14,"Cn1c(-c2cccnc2)nc2cc(C(=O)N[C@H]3CCOc4ccccc43)ccc21 [Example 24, (S)—N-(chroman-4-yl)-1-methyl-2-(pyridin-3-yl)-1H-benzo[d]imidazole-5-carboxamide]",21
15,"O=C(N[C@H]1CCOc2ccccc21)c1cnc2cc(N3CCNCC3)nn2c1 [Example 68, (S)—N-(chroman-4-yl)-2-(piperazin-1-yl)pyrazolo[1,5-a]pyrimidine-6-carboxamide]",9
16,"Cc1ccncc1-c1nc2cc(C(=O)N[C@H]3CCOc4ccccc43)ccc2[nH]1 [Example 1, (S)—N-(chroman-4-yl)-2-(4-methylpyridin-3-yl)-1H-benzo[d]imidazole-5-carboxamide]",26
17,"CN1CCC(c2cc3ncc(C(=O)NC4CCCCC4)cn3n2)CC1 [Example 86, N-cyclohexyl-2-(1-methylpiperidin-4-yl)pyrazolo[1,5-a]pyrimidine-6-carboxamide]",7
18,"O=C(N[C@H]1CCOc2ccccc21)c1ccn2nc(N3CCCCC3)nc2c1 [Example 59, (S)—N-(chroman-4-yl)-2-(piperidin-1-yl)-[1,2,4]triazolo[1,5-a]pyridine-7-carboxamide]",26
19,"Cc1cncc(-c2nc3cc(C(=O)N[C@H]4CCOc5ccccc54)ccc3n2C)c1 [Example 23, (S)—N-(chroman-4-yl)-1-methyl-2-(5-methylpyridin-3-yl)-1H-benzo[d]imidazole-5-carboxamide]",12
20,"CCN1CCC(c2cc3ncc(C(=O)NC4CCC(F)(F)CC4)c(C)n3n2)CC1 [Example 94, N-(4,4-difluorocyclohexyl)-2-(1-ethylpiperidin-4-yl)-7-methylpyrazolo[1,5-a]pyrimidine-6-carboxamide]",13
21,"Cc1ccc(-c2nc3cc(C(=O)N[C@H]4CCOc5ccccc54)ccc3n2C)cn1 [Example 21, (S)—N-(chroman-4-yl)-1-methyl-2-(6-methylpyridin-3-yl)-1H-benzo[d]imidazole-5-carboxamide]",3
22,"CCN1CCN(c2nc3ccc(C(=O)N[C@H]4CCOc5ccccc54)cn3n2)CC1 [Example 45, (S)—N-(chroman-4-yl)-2-(4-ethylpiperazin-1-yl)-[1,2,4]triazolo[1,5-a]pyridine-6-carboxamide]",15
23,"O=C(NC1CCCC1)c1cnc2cc(N3C4CCC3CNC4)nn2c1 [Example 80, 2-(3,8-diazabicyclo[3.2.1]octan-8-yl)-N-cyclopentylpyrazolo[1,5-a]pyrimidine-6-carboxamide]",14
24,"O=C(N[C@H]1CCOc2ccccc21)c1ccc2nc(N3CCNCC3)nn2c1 [Example 40, (S)—N-(chroman-4-yl)-2-(piperazin-1-yl)-[1,2,4]triazolo[1,5-a]pyridine-6-carboxamide]",11
25,"O=C(N[C@H]1CCOc2ccccc21)c1cnc2cc(C3CCNCC3)nn2c1 [Example 82, (S)—N-(chroman-4-yl)-2-(piperidin-4-yl)pyrazolo[1,5-a]pyrimidine-6-carboxamide]",3
26,"Cn1c(N2CCNCC2)nc2cc(C(=O)N[C@H]3CCOc4ccccc43)ccc21 [Example 33, (S)—N-(chroman-4-yl)-1-methyl-2-(piperazin-1-yl)-1H-benzo[d]imidazole-5-carboxamide]",19
27,"Cc1c(C(=O)N[C@H]2CCOc3ccccc32)cnc2cc(C3CCN(C)CC3)nn12 [Example 95, N-[(4S)-3,4-dihydro-2H-1-benzopyran-4-yl]-7-methyl-2-(1-methylpiperidin-4-yl)pyrazolo[1,5-a]pyrimidine-6-carboxamide]",13
28,"CN1CCC(c2cc3ncc(C(=O)N[C@H]4CCOc5ccccc54)cn3n2)CC1 [Example 88, (S)—N-(chroman-4-yl)-2-(1-methylpiperidin-4-yl)pyrazolo[1,5-a]pyrimidine-6-carboxamide]",15
29,"O=C(NC1CCCC1)c1ccc2nc(N3C4CCC3CNC4)cn2c1 [Example 67, 2-(3,8-diazabicyclo[3.2.1]octan-8-yl)-N-cyclopentylimidazo[1,2-a]pyridine-6-carboxamide]",27
